What was measured:
Botrytis cinerea = assay: Antifungal susceptibility disk test, fungicide disk plus apyrase inhibitor in plate; type: cell-based; settings: inhibitor 65 μM, 30° C., 12 days; for inhibitory effect on the growth of B. cinerea compared to myclobutanil alone: combined with myclobutanil (53.6 mM) disk, FIG. 2B; for inhibitory effect on the growth of B. cinerea compared to propiconazole alone: combined with propiconazole (418 mM) disk, FIG. 2C
Protocol: (§1) 2A. Copper Octanoate, 2B. Propiconazole, and 2C. Myclobutanil against the pathogenic fungi Botrytis cinerea. […] The equivalent volume of dimethylsulphoxide (DMSO) was added as a control. The studies were repeated two times with similar results. Error bars indicate standard deviations (n=5). The significances of the potency of fungicides are indicated: *** (Student's t-test, P<0.001); ** (Student's t-test, P<0.01) or *(Student's t-test, P<0.05). The plant pathogenic fungal strains Botrytis cinerea, Colletotrichum graminicola, Fusarium oxysporum, Sclerotiana sclerotiorum and Verticillium dahliae were obtained from the Institute for Plant Genomics & Biotechnology, Texas A & M University, USA Potato dextrose agar (PDA, Sigma-Aldrich) was routinely used for the growth of different pathogenic fungal strain. Ectophosphatase inhibitors NGXT191 (AI.1), AI.10, NGXT1913 (AI.13), and AI. 15 were used dal this study. The fungicides copper octanoate (C16H30CuO4), myclobutanil (C15H17ClN4) and propiconazole (C15H17Cl2N3O2) were used. The concentrations of these compounds used were copper octanoate (285 mM), myclobutanil (53.6 mM) and propiconazole (418 mM). Standard antifungal susceptibility disk tests were performed to determine any potentiating effect of ectophosphatase inhibitors on the growth of pathogenic fungus. The pathogenic fungus wild-type strains were plated on PDA medium with paper-disks containing, fungicides at the center of the plate. […] Plates were incubated at 30° C. for 7-days (C. graminicola and S. sclerotiorum) or 12-days (B. cinerea, F. oxysporum and V. dahliae), depending on the growth rate of the fungi. Plates were photographed, and the zone of fungal growth inhibition was measured by using IMAGE J™ software (NIH, USA). All the tests were performed with 5 replicates. The studies were performed two times. Results were analyzed for significance using Student T-tests.

[1] = test system: Fusarium oxysporum f.sp Cubense; assay: as above; type: cell-based; settings: inhibitor 65 μM, 30° C., 12 days; for inhibitory effect on the growth of F. oxysporum compared to copper octanoate alone: combined with copper octanoate (285 mM) disk, FIG. 4A
Protocol: as §1, with “Copper” for “2A. Copper”, “Octanoate, 4B.” for “Octanoate, 2B.”, “and 4C.” for “and 2C.”, “fungi Fusarium oxysporum.” for “fungi Botrytis cinerea.”, “P<0.001); **(Student's” for “P<0.001); ** (Student's”

Row | Structure (SMILES) | inhibitory effect on the growth of B. cinerea compared to myclobutanil alone (Botrytis cinerea) | inhibitory effect on the growth of B. cinerea compared to propiconazole alone (Botrytis cinerea) | inhibitory effect on the growth of F. oxysporum compared to copper octanoate alone [1] | inhibitory effect on the growth of F. oxysporum compared to myclobutanil alone ([1]; combined with myclobutanil (53.6 mM) disk, FIG. 4B) | inhibitory effect on the growth of F. oxysporum compared to propiconazole alone ([1]; combined with propiconazole (418 mM) disk, FIG. 4C)
1 | Cc1cccc(NS(=O)(=O)c2ccc(-c3ccccc3)cc2)c1 [AI.1, N-(m-tolyl)-[1,1′-biphenyl]-4-sulfonamide] | significantly greater inhibitory effect | greater inhibitory effect | significantly greater inhibitory effect |  | 
2 | CCCCCCCSC(=O)c1cc2ccccc2oc1=O [AI.10, S-heptyl 2-oxo-2H-chromene-3-carbothioate] |  | greater inhibitory effect |  | significantly greater inhibitory effect | significantly greater inhibitory effect
3 | O=C(Nc1cccc([N+](=O)[O-])c1)c1cccc(S(=O)(=O)Nc2ccc(Br)cc2)c1 [AI.13, 3-(N-(4-bromophenyl)sulfamoyl)-N-(3-nitrophenyl)benzamide] | significantly greater inhibitory effect |  | significantly greater inhibitory effect |  | 
4 | C/C(=N\NC(=O)c1cccc(C)c1)c1ccc2ccccc2c1 [AI.15, (E)-3-methyl-N′-(1-(naphthalen-2-yl)ethylidene)benzohydrazide] | significantly greater inhibitory effect | greater inhibitory effect |  |  | 
